According to US20090155187A1, “DRUG FOR INHIBITING VASCULAR INTIMAL HYPERPLASIA” (Nissan Chemical Industries Ltd., priority 2004, published 2009):

System: rat femoral arteries (intimal hyperplasia)
Assay: Intimal hyperplasia in rat femoral arteries formed by photosensitization (rose bengal and green light)
Format: in vivo, Wistar rat
Settings: left femoral artery, vs solvent group
Protocol: Under intraperitoneal anesthesia with pentobarbital (50 mg/mL/kg), a catheter was placed in the left cervical vein of a Wistar rat. The left femoral artery was detached, and the probe of an ultrasonic pulse Doppler blood flowmeter was placed on the artery. The artery proximal to the site of placement of the probe was irradiated with green light (540 nm, 800,000 1×) at a distance of 5 mm from the artery. A steady blood flow was confirmed after 10 minutes of start of the irradiation, and 15 mg/mL/kg of rose bengal was injected into the left cervical vein to damage the vascular endothelium. Then, the incision was sutured. Rats were divided in order as a solvent group (9 rats), a group (10 rats) to which 10 mg/kg of Compound A was administered, and a group (10 rats) to which 300 mg/kg of Cilostazol was administered. The drugs were suspended in 0.5% methylcellulose solution, adjusted so as to be administered at a dose of 5 mL/kg, and orally administered on the day of operation after confirmation of postoperative arousal, and then orally administered once a day in the morning for the subsequent three weeks. Three weeks after the operation, the left femoral artery was exposed under anesthesia. […] The medial areas and the intimal area in transverse sections of the femoral arteries were measured as indices of intimal hyperplasia with a computer image analyzer, and the ratio of the […] (the I/M ratio) was calculated. The results are expressed as average±standard deviation. The intimal areas and the I/M ratios were analyzed for distribution uniformity in each group by Bartlett's test. If the distribution was uniform, one-way analysis of variance was done, and the averages for the solvent group and the respective drug-treated groups were analyzed by Dunnett's test to determine if there was significant difference between them. When the distribution was not uniform, the Kruskal-Wallis rank test was done, and if there was significant difference between the solvent group and a drug-treated group, the average ranks for the two groups were analyzed by Dunnett's test. […]

[1] = 10 mg/kg orally once a day for three weeks, Dunnett's test p<0.05

Row | Structure (SMILES) | intimal hyperplasia inhibitory action (intimal area and I/M ratio) (300 mg/kg orally once a day for three weeks) | I/M ratio [1] | area of the tunica intima (intimal area) [1]
1 | O=C1CCc2cc(OCCCCc3nnnn3C3CCCCC3)ccc2N1 [Cilostazol, reference compound] | showed no action |  | 
2 | Cl.O=c1[nH]nc(OCCCc2ccc(Cl)cc2)c(NCc2cccnc2)c1Br [Compound A, 4-bromo-6-[3-(4-chlorophenyl)propoxy]-5-(3-pyridylmethylamino)-3(2H)-pyridazinone hydrochloride] |  | significantly reduced | significantly reduced
